In PubChem BioAssay (NCI):
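Growth conditions: 96-well plates. Treatment: test compound, 48 hours, 5 concentrations. Analysis: linear interpolation between bracketing concentrations; unreached endpoints set to highest concentration. GI50 is the concentration that inhibits growth by half. Definition used: TGI = concentration required for complete inhibition of growth.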

Tests used:
Assay in all cases: NCI-60 cell line screen, 48 h; in the data active means GI50 below about 0.43 µM; inactive means the rest
MDA-MB-435 = tested on: MDA-MB-435
SF-539 CNS = tested on: SF-539 CNS
UACC-257 melanoma = tested on: UACC-257 melanoma
K-562 leukemia = tested on: K-562 leukemia
SK-MEL-28 melanoma = tested on: SK-MEL-28 melanoma
A549 NSCLC = tested on: A549 NSCLC
NCI-H522 lung = tested on: NCI-H522 lung
DU-145 prostate = tested on: DU-145 prostate
SNB-75 CNS = tested on: SNB-75 CNS
BT-549 breast = tested on: BT-549 breast

Cc1cc(N=C2C=C(Br)C(=O)C(Br)=C2)cc(CN(CC(=O)O)CC(=O)O)c1O
> 100 µM: TGI (MDA-MB-435) | TGI (SF-539 CNS) | TGI (UACC-257 melanoma) | TGI (K-562 leukemia) | TGI (SK-MEL-28 melanoma) | TGI (A549 NSCLC) | TGI (NCI-H522 lung) | TGI (DU-145 prostate) | TGI (SNB-75 CNS)

C=CCC1=C(C)C[C@@H]2CCC(=O)C=C12
> 100 µM: TGI (SF-539 CNS) | TGI (UACC-257 melanoma) | TGI (K-562 leukemia) | TGI (SK-MEL-28 melanoma) | TGI (A549 NSCLC) | TGI (NCI-H522 lung) | TGI (SNB-75 CNS)

Cc1cccc(C)c1NC(=O)CCc1nc(=S)[nH][nH]1
> 100 µM: TGI (SF-539 CNS) | TGI (K-562 leukemia) | TGI (SK-MEL-28 melanoma) | TGI (A549 NSCLC) | TGI (NCI-H522 lung) | TGI (SNB-75 CNS)

CC(=O)O[C@]1(C)OC(=O)[C@@H](CC(C)C)N1[N+](=O)[O-]
> 100 µM: TGI (SF-539 CNS) | TGI (UACC-257 melanoma) | TGI (K-562 leukemia) | TGI (SK-MEL-28 melanoma) | TGI (A549 NSCLC) | TGI (NCI-H522 lung) | TGI (SNB-75 CNS)

CC(=O)OCC(=O)[C@@]12OC(C)(C)O[C@@H]1C[C@H]1[C@@H]3CC(C=O)=C4C=C(OCCCl)CC[C@]4(C)[C@@]3(F)[C@@H](O)C[C@@]12C
80.9 µM: TGI (SF-539 CNS)
> 100 µM: TGI (K-562 leukemia) | TGI (A549 NSCLC)
80.1 µM: TGI (SK-MEL-28 melanoma)
92 µM: TGI (NCI-H522 lung)
80.6 µM: TGI (UACC-257 melanoma)

CCCC(=O)N[C@H]1C2C3CC4C5CC(C42)C1(C)C53 (stereo not given in full)
> 100 µM: TGI (SF-539 CNS) | TGI (UACC-257 melanoma) | TGI (K-562 leukemia) | TGI (SK-MEL-28 melanoma) | TGI (A549 NSCLC) | TGI (NCI-H522 lung) | TGI (SNB-75 CNS)

O=c1ncccn1C1OC(CO)C(O)C1O (stereo not given)
> 100 µM: TGI (K-562 leukemia) | TGI (SK-MEL-28 melanoma) | TGI (A549 NSCLC) | TGI (NCI-H522 lung) | TGI (SNB-75 CNS)

COc1ccc(CCn2c(=O)c3ccccc3n(C)c2=O)cc1
> 100 µM: TGI (SF-539 CNS) | TGI (UACC-257 melanoma) | TGI (K-562 leukemia) | TGI (SK-MEL-28 melanoma) | TGI (A549 NSCLC) | TGI (SNB-75 CNS)
95.2 µM: TGI (NCI-H522 lung)

O=C(O)CCNCCCCNCCC(=O)O
> 100 µM: TGI (SF-539 CNS) | TGI (K-562 leukemia) | TGI (SK-MEL-28 melanoma) | TGI (A549 NSCLC) | TGI (NCI-H522 lung) | TGI (SNB-75 CNS)

N.N.N.N.N.O=[N+]([O-])[O-].[Co+3].[O-][Cl+3]([O-])([O-])[O-]
> 100 µM: TGI (SF-539 CNS) | TGI (UACC-257 melanoma) | TGI (K-562 leukemia) | TGI (SK-MEL-28 melanoma) | TGI (A549 NSCLC) | TGI (NCI-H522 lung) | TGI (SNB-75 CNS)
inactive: GI50 (SF-539 CNS) > 100 µM | GI50 (UACC-257 melanoma) > 100 µM | GI50 (K-562 leukemia) > 100 µM | GI50 (SK-MEL-28 melanoma) > 100 µM | GI50 (A549 NSCLC) > 100 µM | GI50 (NCI-H522 lung) > 100 µM | GI50 (SNB-75 CNS) 29.6 µM

COC(=O)CC(NC(=O)OCc1ccccc1)C(C(=O)OCc1ccccc1)C(C)(OC)OC (stereo not given)
85.6 µM: TGI (UACC-257 melanoma)
85.1 µM: TGI (A549 NSCLC)
64 µM: TGI (SNB-75 CNS)
> 100 µM: TGI (SF-539 CNS) | TGI (K-562 leukemia) | TGI (SK-MEL-28 melanoma)

CCOC(=O)N1CCc2cc(OC)c(OC)cc2/C1=C\c1ccc(OC)c(OC)c1
> 10 µM: TGI (K-562 leukemia)
59.2 µM: TGI (SF-539 CNS)
79.3 µM: TGI (SNB-75 CNS)
77.6 µM: TGI (NCI-H522 lung)
> 100 µM: TGI (SK-MEL-28 melanoma)
53.8 µM: TGI (UACC-257 melanoma)
80.5 µM: TGI (A549 NSCLC)

CCOC(=O)CCn1ncc(Cl)c(Cl)c1=O
32.9 µM: TGI (A549 NSCLC)
29.6 µM: TGI (SNB-75 CNS)
26.5 µM: TGI (UACC-257 melanoma)
6.58 µM: TGI (SK-MEL-28 melanoma)
0.834 µM: TGI (NCI-H522 lung)
27.3 µM: TGI (SF-539 CNS)
8.52 µM: TGI (K-562 leukemia)

CC1CCSC(N(C(=O)N(C)c2ccccc2)c2ccccc2)=N1 (stereo not given)
> 100 µM: TGI (SF-539 CNS) | TGI (UACC-257 melanoma) | TGI (K-562 leukemia) | TGI (SK-MEL-28 melanoma) | TGI (A549 NSCLC) | TGI (NCI-H522 lung) | TGI (SNB-75 CNS)

Cc1c(NC(=S)NC(=O)c2ccc([N+](=O)[O-])cc2)c(=O)n(-c2ccccc2)n1C
> 100 µM: TGI (SF-539 CNS) | TGI (UACC-257 melanoma) | TGI (K-562 leukemia) | TGI (SK-MEL-28 melanoma) | TGI (A549 NSCLC) | TGI (NCI-H522 lung) | TGI (SNB-75 CNS)

COc1ccc(/C(Cl)=C/c2cc(OC)ccc2OC)cc1
> 100 µM: TGI (SF-539 CNS) | TGI (UACC-257 melanoma) | TGI (K-562 leukemia) | TGI (SK-MEL-28 melanoma) | TGI (A549 NSCLC) | TGI (NCI-H522 lung) | TGI (SNB-75 CNS)

NNC(=O)C(=O)N/N=C1\CCC(=O)CC1C(=O)CCC(=O)Nc1ccc(Cl)cc1 (stereo not given)
> 100 µM: TGI (SF-539 CNS) | TGI (UACC-257 melanoma) | TGI (K-562 leukemia) | TGI (SK-MEL-28 melanoma) | TGI (A549 NSCLC) | TGI (SNB-75 CNS)

Cc1cc(N(CCC#N)CCC#N)ccc1N=Nc1ccc(Br)cc1
> 100 µM: TGI (UACC-257 melanoma) | TGI (K-562 leukemia) | TGI (SK-MEL-28 melanoma)
> 51.9 µM: TGI (SF-539 CNS)
59.8 µM: TGI (NCI-H522 lung)
> 45.9 µM: TGI (A549 NSCLC)

COc1ncnc(S(=O)(=O)c2ccc(N=C3C(=O)N(CN4CCN(c5cc6c(cc5F)c(=O)c(C(=O)O)cn6C5CC5)CC4)c4ccc(Cl)cc43)cc2)c1OC
> 50 µM: TGI (MDA-MB-435) | TGI (SF-539 CNS) | TGI (UACC-257 melanoma) | TGI (K-562 leukemia) | TGI (SK-MEL-28 melanoma) | TGI (A549 NSCLC) | TGI (NCI-H522 lung) | TGI (DU-145 prostate)
inactive: GI50 (MDA-MB-435) > 50 µM | GI50 (SF-539 CNS) > 50 µM | GI50 (UACC-257 melanoma) 46.4 µM | GI50 (K-562 leukemia) 24.6 µM | GI50 (SK-MEL-28 melanoma) > 50 µM | GI50 (A549 NSCLC) > 50 µM | GI50 (NCI-H522 lung) > 50 µM | GI50 (DU-145 prostate) > 50 µM

CC(C)CCCC(C)[C@H]1CCC2[C@@H]3CCC4Nc5c(cnn5-c5ccccc5)C[C@]4(C)C3CC[C@@]21C (stereo not given in full)
> 100 µM: TGI (SF-539 CNS) | TGI (UACC-257 melanoma) | TGI (K-562 leukemia) | TGI (A549 NSCLC) | TGI (NCI-H522 lung)
25.7 µM: TGI (SNB-75 CNS)

Cc1ccc(S(=O)(=O)c2ccccc2[N+](=O)[O-])cc1
> 100 µM: TGI (SF-539 CNS) | TGI (UACC-257 melanoma) | TGI (K-562 leukemia) | TGI (SK-MEL-28 melanoma) | TGI (A549 NSCLC) | TGI (SNB-75 CNS)

COc1ccc(CCc2cc(OC)cc(OC)c2)cc1
> 41 µM: TGI (NCI-H522 lung)
> 81.3 µM: TGI (SNB-75 CNS)
71.8 µM: TGI (K-562 leukemia)
> 100 µM: TGI (SF-539 CNS) | TGI (UACC-257 melanoma) | TGI (SK-MEL-28 melanoma) | TGI (A549 NSCLC)

CC(C)(C)C(=CS(=O)/N=C/c1ccccc1)C(C)(C)C (stereo not given)
86.4 µM: TGI (K-562 leukemia)
63.2 µM: TGI (NCI-H522 lung) | TGI (SNB-75 CNS)
> 100 µM: TGI (SF-539 CNS) | TGI (UACC-257 melanoma) | TGI (SK-MEL-28 melanoma) | TGI (A549 NSCLC)

CC(C)(C)OC(=O)NCCCn1c2c(c3ccccc3c1=O)C(=O)c1ccccc1-2
> 100 µM: TGI (MDA-MB-435) | TGI (UACC-257 melanoma) | TGI (K-562 leukemia) | TGI (A549 NSCLC) | TGI (NCI-H522 lung) | TGI (BT-549 breast) | TGI (DU-145 prostate)
29.3 µM: TGI (SF-539 CNS)
inactive: GI50 (MDA-MB-435) > 100 µM | GI50 (SF-539 CNS) 10.3 µM | GI50 (UACC-257 melanoma) 75.4 µM | GI50 (K-562 leukemia) > 100 µM | GI50 (A549 NSCLC) 41.9 µM | GI50 (NCI-H522 lung) 42.4 µM | GI50 (BT-549 breast) 31.7 µM | GI50 (DU-145 prostate) 74.8 µM

C[Si](C)(C)/C=C\CCO
> 100 µM: TGI (SF-539 CNS) | TGI (UACC-257 melanoma) | TGI (K-562 leukemia) | TGI (SK-MEL-28 melanoma) | TGI (A549 NSCLC) | TGI (NCI-H522 lung) | TGI (SNB-75 CNS)

O=C(Nc1ccc(-c2nc(-c3cccc(OCCN4CCOCC4)c3)c(-c3ccnc(Br)c3)[nH]2)cc1)c1ccccc1
> 100 µM: TGI (A549 NSCLC) | TGI (NCI-H522 lung) | TGI (BT-549 breast) | TGI (DU-145 prostate)
6.36 µM: TGI (UACC-257 melanoma)
inactive: GI50 (MDA-MB-435) 1.69 µM | GI50 (SF-539 CNS) 1.23 µM | GI50 (UACC-257 melanoma) 2.23 µM | GI50 (SK-MEL-28 melanoma) 1.5 µM | GI50 (A549 NSCLC) 2.25 µM | GI50 (NCI-H522 lung) 3.69 µM | GI50 (BT-549 breast) 2.71 µM | GI50 (DU-145 prostate) 6.74 µM
2.76 µM: TGI (SNB-75 CNS)
active: GI50 (SNB-75 CNS) 0.364 µM
3.94 µM: TGI (SK-MEL-28 melanoma)
3.76 µM: TGI (MDA-MB-435)
3.71 µM: TGI (SF-539 CNS)
